Measurements taken from patent US20040106681A1, “Dosage escalation and divided daily dose of anti-depressants to treat neurological disorders” (priority 2002, published 2004).
Counter-ions that a name gives are not always drawn.

What was measured:
[1] = pretreatment; repeatedly stressed rats; cited from earlier work
[2] = swim stress test, hot plate response latency (thermal nociception threshold); type: in vivo, Sprague-Dawley rats
Procedure: (§1) The treatment groups of rats were the following: (1) stressed—forced swimming in 20 cm of water; (2) sham—swimming in 2-3 cm of water; (3) naive—left undisturbed in cage.
(§2) The rats were tested for thermal nociception threshold by hot plate response latency (in seconds). The rats were tested for muscle hyperalgesia by measuring grip strength (in kg) by algometer.
(§3) Data on hot plate response latency and grip strength was acquired on days 7 and 11.

[3] = Example 2 12-week randomized, double-blind placebo-controlled dose escalation monotherapy trial in FMS; type: in vivo, human; conditions: for Intolerance (dose escalation failures, number of patients): 36 total patients
Procedure: After an initial period when patients were washed off pain medication, centrally acting stimulants, antidepressants and sedative-hypnotics, a two-week baseline period was begun. […] All patients were escalated over a 4-week period in weekly steps from 25 mg daily, to 50, 100, and finally 200 mg daily, or until dose-limiting toxicity (DLT) was evident. The presence of DLT was evaluated by the study center each week prior to authorizing the patient to step up to the next higher dosage. In the event that DLT was evident, the patient was stabilized at the previously well-tolerated dosage, and remained on this dose for eight weeks at stable dose therapy. Patients who successfully reached the 200 mg daily dose were also then treated for an additional 8 weeks at that dose.
At any give dose level, milnacipran QD patients would receive the full dose of milnacipran in the morning and receive placebo at night. Milnacipran BID patients would receive the same total amount in a split dose given morning and evening. During the study, patents were asked to carry an electronic diary and record pain, fatigue, sleep, and functional information. The custom designed diary captured spontaneous pain data in several ways, including
(1) random daily prompts (the device notified the patient to record their current level of pain 4-5 times per day);
(2) a morning daily prompt querying about the previous 24-hours' pain;
(3) a Friday night weekly report asking about the patient's average pain for the past week.
The electronic assessments were supplemented with traditional pain, mood, and quality of life inventories during clinic visits. The diaries implemented an electronic version of the Gracely anchored logarithmic pain scale. This scale asks patients to choose between “extremely intense,” “very intense,” “intense,” “strong,” “slightly intense,” “barely strong,” “moderate,” “mild,” “very mild,” “weak,” “very weak,” “faint,” and “no pain” sensation to describe their pain.
During the 4th, 8th, and 12th week of treatment, patients visited the clinic, where a number of standard outcome measures including the SF-36, the McGill pain questionnaire, the Beck, the STPI, the fibromyalgia impact questionnaire, and several pain measures were administered. Safety information was also collected at these clinic visits.
The primary endpoint was defined as the change in pain score from baseline to endpoint based on pain scores collected on the patient electronic diary (PED). Endpoint was defined as week twelve for assessments with a single value (such as clinic measures) or the average of scores at weeks 11 and 12 for diary-based outcomes. “Responders” were defined as those patients an improvement in pain score of at least 30%.

[4] = Example 1 gradual dose escalation study in fibromyalgia; type: in vivo, human; conditions: out of approximately 70 treated; weekly escalation 25, 50, 100, 200 mg daily
Text: This study was undertaken to characterize the efficacy of milnacipran in treatment of fibromyalgia syndrome (FMS). A secondary objective was to evaluate the relationship between daily dose administered, frequency of dosing, and efficacy in treatment of FMS. […] In this study, daily dosages were gradually escalated.
Subjects who met the 1990 ACR criteria for fibromyalgia syndrome were eligible for enrollment. Patients recorded baseline symptoms for the first two weeks after washing off anti-depressants, hypnotics and certain other drugs that potentially could interfere with efficacy measurements. […] If the patient tolerated this dosage, they were stepped up to a 50 mg daily dosage for week two, 100 mg for week three, and 200 mg for week four, or a matching placebo. If dose-limiting toxicities were encountered during any given week, the patient was stepped down to the previous week's dosage and maintained at that dosage for the remainder of the study. Subjects continued to take their maximum tolerated dose (up to 200 mg) for an additional 8 weeks. Patients may receive a total of 12 weeks of medication. Dose-limited toxicity is defined as the occurrence of a drug-related grade 3-4 adverse event.
Efficacy was measured using FMS status assessments prior to receiving the first dose and during monthly clinic visits. […]

[5] = swim stress test, grip strength (muscle hyperalgesia); type: in vivo, Sprague-Dawley rats
Procedure: as §1, §2, §3

[6] = pretreatment, 10 or 30 mg/kg/day IP QD days 1-11, swim stress days 8-10
[7] = treatment after swim stress, drug days 5-10, swim stress days 2-4

Row | Compound | development of cutaneous hyperalgesia [1] | swim stress-induced reductions in hot plate latency [2, 6] | swim stress-induced reductions in hot plate response latency [2, 7] | patient global pain score, mean value ([3]; 1-7 scale (1 very much improved, 4 unchanged, 7 very much worse), endpoint, 38 MIL patients, QD and BID pooled) | % Dose Intolerance ([3]; BID dosing) [%] | Intolerance (dose escalation failures, number of patients) ([3]; BID dosing) | difference in Beck scores at endpoint versus placebo ([3]; FMS patients meeting definition of MDE, pooled milnacipran groups, p=0.03) | daily sleep quality scores, improvement versus placebo ([3]; QD and BID, 12-week treatment) | % Dose Intolerance ([3]; QD dosing) [%] | Intolerance (dose escalation failures, number of patients) ([3]; QD dosing) | worsening of sleep quality ([3]; in vivo) | patient electronic diary (PED) pain scores of responders ([3]; milnacipran BID, weeks 2-6, dose escalation) | 24-hour daily pain reported scores, BID versus QD ([3]; throughout 12-week treatment) | patients who failed to tolerate 200 mg/day [4] | stress-induced reduction in grip strength [5, 6] | reduction in grip strength caused by repeated forced swim stress [5, 7]
1 | CN(C)CCCN1c2ccccc2CCc2ccc(Cl)cc21 [clormipramine] | prevent the development of cutaneous hyperalgesia |  |  |  |  |  |  |  |  |  |  |  |  |  |  | 
2 | CNCCC(Oc1ccc(C(F)(F)F)cc1)c1ccccc1.Cl (racemic) [fluoxetine, (±)-N-methyl-3-phenyl-3-[(α,α,α-trifluoro-p-tolyl)oxy]propylamine hydrochloride] | prevent the development of cutaneous hyperalgesia |  |  |  |  |  |  |  |  |  |  |  |  |  |  | 
3 | CCN(CC)C(=O)[C@@]1(c2ccccc2)C[C@H]1CN (racemic) [milnacipran, (±)-cis-2-(aminomethyl)-N,N-diethyl-1-phenylcyclopropanecarboxamide hydrochloride] |  | not prevented | did not reverse | 2.3 | 6 | 2 | significant | No significant improvement | 19 | 7 | no worsening | improvement | BID dosing was more effective than QD dosing | 9 | prevented | did reverse
